From US20030158120A1, “Combination product comprising melagatran and a factor xa inhibitor” (AstrZeneca AB, priority 2000, published 2003)
One block for each compound: values may come before it.

Legend:
human plasma = assay: Prothrombin time clotting assay; assay type: biochemical
Procedure: Human blood from healthy volunteers, both men and women, was collected in 50 mL conical plastic tubes containing 5 mL of 0.13 mol/L of buffered tri-sodium citrate. The blood was immediately chilled on ice and centrifuged at 2000×g for 20 minutes.
100 μL of human plasma was pre-warmed to 37° C. for 180 seconds before coagulation was initiated by the addition of 200 μL pre-warmed assay reagent (Thromboplastin-S, ISI 1.1, Biopool Umea, Sweden). The prothrombin time (PT) was determined on a mechanical coagulometer, coupled to a CR-A calculator, CR 10 printer and a PR60 heat block (KC 10A Amelung, Germany). Each clotting test was performed in duplicate.
In order to determine the relative potency of each inhibitor and a 50:50 mixture thereof, the concentration required to double the prothrombin time (IC50) was determined as follows: The ratio of prothrombin time in control plasma (PT0) to the prothrombin time in the presence of different inhibitor concentrations (PTinhibitor) were plotted against the inhibitor concentration (log transformed) and fitted to sigmoidal dose-response curves from which IC50 values were calculated according to the equation:
where y=(PTO)/(PT) with a range from 1 to 0; a=maximal range i.e. 1, when PTmela is equal to PT0; s=the slope of the dose-response curve, x=log concentration of inhibitor, IC50=the concentration of melagatran that doubles the prothrombin time. The calculations were processed on a PC using the software program GraFit® Erithacus Version 3.0 (Robin Leatherbarrow, Imperial Collage of Science, Technology & Medicine, London).

melting point: 265 to 267 °C
SMILES: O=C(c1ccc(-c2cc[n+]([O-])cc2)cc1)N1CCN(S(=O)(=O)c2cc3cc(Cl)ccc3[nH]2)CC1 [Example 1, 4-{4-[4(5-Chloroindol-2-ylsulfonyl)piperazine-1-carbonyl]phenyl}-pyridine-1-oxide]

IC50 (human plasma; from sigmoidal dose-response curves of PT0/PTinhibitor, human plasma, total concentration for the mixture, read-out: IC50 (concentration required to double the prothrombin time)): 740 nM
SMILES: N=C(N)c1ccc(CNC(=O)[C@@H]2CCN2C(=O)[C@H](NCC(=O)O)C2CCCCC2)cc1 [melagatran, HOOC—CH2—(R)Cgl-Aze-Pab-H]
Prothrombin time (human plasma; plasma conc. 0.23 μmol/L): 18.1 s
Prothrombin time (human plasma; plasma conc. 0.47 μmol/L): 21.8 s
Prothrombin time (human plasma; plasma conc. 0.70 μmol/L): 25.4 s
Prothrombin time (human plasma; plasma conc. 0.93 μmol/L): 32.6 s
Prothrombin time (human plasma; plasma conc. 1.17 μmol/L): 43.2 s
Prothrombin time (human plasma; plasma conc. 1.40 μmol/L): 53.8 s
Prothrombin time (human plasma; plasma conc. 1.63 μmol/L): 65.3 s
Prothrombin time (human plasma; plasma conc. 1.86 μmol/L): 76.3 s
Prothrombin time (human plasma; plasma conc. 2.10 μmol/L): 87.2 s
PT (human plasma; single inhibitor at 2.33 μmol/L in human platelet poor plasma): 95.2 s
